Source: PubChem BioAssay (NCI)
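Each compound was tested at five concentrations against cells in 96-well plates for 48 hours. GI50: concentration for 50% inhibition of growth. The concentration for full growth arrest is given as TGI.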

Tests used:
Experiment in all cases: DTP human tumour cell line panel, 48 h
LOX IMVI melanoma = system: LOX IMVI melanoma
MALME-3M melanoma = system: MALME-3M melanoma
HCC-2998 colon = system: HCC-2998 colon
COLO 205 colon = system: COLO 205 colon
OVCAR-4 ovarian = system: OVCAR-4 ovarian
SF-295 CNS = system: SF-295 CNS
U251 CNS = system: U251 CNS
CAKI-1 renal = system: CAKI-1 renal
HOP-62 NSCLC = system: HOP-62 NSCLC
BT-549 breast = system: BT-549 breast

## c1ccc(C2OC3(CCC[C@H]4C[C@H]43)O[C@H]2c2ccccc2)cc1 (some centres not stated)
LOX IMVI melanoma
  TGI: 56.8 µM
MALME-3M melanoma
  TGI: 88 µM
HCC-2998 colon
  TGI: > 100 µM
COLO 205 colon
  TGI: 91.7 µM
OVCAR-4 ovarian
  TGI: > 100 µM
SF-295 CNS
  TGI: > 100 µM
U251 CNS
  TGI: > 100 µM
CAKI-1 renal
  TGI: 74.7 µM
HOP-62 NSCLC
  TGI: > 100 µM

## CC(=O)[O-].Cn1ccnc1CNCc1nccn1C.[Cu+2].[O-][Cl+3]([O-])([O-])[O-]
LOX IMVI melanoma
  GI50: > 100 µM
  TGI: > 100 µM
HCC-2998 colon
  GI50: > 100 µM
  TGI: > 100 µM
COLO 205 colon
  GI50: > 100 µM
  TGI: > 100 µM
OVCAR-4 ovarian
  GI50: 3.1 µM
  TGI: > 100 µM
SF-295 CNS
  GI50: 96.9 µM
  TGI: > 100 µM
U251 CNS
  GI50: 33.7 µM
  TGI: > 100 µM
HOP-62 NSCLC
  GI50: > 100 µM
  TGI: > 100 µM

## COC(=O)C1=C(O)[C@H](C(=O)OC)C2(O)C(C(=O)OC)[C@H](c3ccc(OC(=O)C(C)c4ccc(CC(C)C)cc4)cc3)C[C@@H]1[C@@H]2C(=O)OC (some centres not stated)
LOX IMVI melanoma
  GI50: 6.06 µM
  TGI: 14.9 µM
BT-549 breast
  GI50: 1.03 µM
  TGI: 3.68 µM
HCC-2998 colon
  GI50: 7.95 µM
  TGI: 15.8 µM
COLO 205 colon
  GI50: 12.3 µM
  TGI: 41.3 µM
OVCAR-4 ovarian
  GI50: 11.7 µM
  TGI: > 50 µM
SF-295 CNS
  GI50: > 50 µM
  TGI: > 50 µM
U251 CNS
  GI50: 11.6 µM
  TGI: 30.2 µM
CAKI-1 renal
  GI50: > 50 µM
  TGI: > 50 µM
HOP-62 NSCLC
  GI50: 31.7 µM
  TGI: > 50 µM

## CC1=C(/C=C/C(C)=C/C2CC(N(C)C)=CC(=O)O2)C(C)(C)CCC1 (configuration not stated)
LOX IMVI melanoma
  TGI: 30.3 µM
MALME-3M melanoma
  TGI: 28.6 µM
HCC-2998 colon
  TGI: 26.7 µM
COLO 205 colon
  TGI: 27.2 µM
OVCAR-4 ovarian
  TGI: 31.7 µM
SF-295 CNS
  TGI: 26.1 µM
U251 CNS
  TGI: 28.7 µM
CAKI-1 renal
  TGI: 37.1 µM
HOP-62 NSCLC
  TGI: 31 µM

## COc1ccc2c(c1)[nH]c(=O)c1c3cccc(F)c3cn21
LOX IMVI melanoma
  GI50: 0.0759 µM
  TGI: > 100 µM
BT-549 breast
  GI50: 21.2 µM
  TGI: > 100 µM
HCC-2998 colon
  GI50: 0.143 µM
  TGI: 0.822 µM
COLO 205 colon
  GI50: 0.0388 µM
  TGI: 1.11 µM
OVCAR-4 ovarian
  GI50: 0.126 µM
  TGI: 28.8 µM
SF-295 CNS
  GI50: 0.0408 µM
U251 CNS
  GI50: 0.0472 µM
  TGI: 14.8 µM
CAKI-1 renal
  GI50: 0.0137 µM
  TGI: 0.04 µM
HOP-62 NSCLC
  GI50: 0.641 µM
  TGI: 51.3 µM

## O=C1C(c2ccc(Br)cc2)=[N+]([O-])c2ccccc21
LOX IMVI melanoma
  TGI: 21.7 µM
MALME-3M melanoma
  TGI: 32.7 µM
HCC-2998 colon
  TGI: 29.3 µM
COLO 205 colon
  TGI: 32.2 µM
U251 CNS
  TGI: 27.9 µM
HOP-62 NSCLC
  TGI: 68.8 µM

## Cc1cc2c(C)n(Cc3ccccc3Cl)nc2c(C(=O)O)c1C
LOX IMVI melanoma
  TGI: > 100 µM
MALME-3M melanoma
  TGI: > 100 µM
HCC-2998 colon
  TGI: > 100 µM
SF-295 CNS
  TGI: > 100 µM
U251 CNS
  TGI: > 100 µM
HOP-62 NSCLC
  TGI: > 100 µM

## COc1ccc2c(c1)c(-c1nc(-c3c[nH]c4ccncc34)cs1)cn2C
MALME-3M melanoma
  GI50: 1.74 µM
  TGI: 3.28 µM
BT-549 breast
  GI50: 1.81 µM
  TGI: 3.45 µM
HCC-2998 colon
  GI50: 1.85 µM
  TGI: 3.35 µM
OVCAR-4 ovarian
  GI50: 1.89 µM
  TGI: 3.71 µM
SF-295 CNS
  GI50: 1.69 µM
  TGI: 3.13 µM
U251 CNS
  GI50: 1.87 µM
  TGI: 3.3 µM
CAKI-1 renal
  GI50: 1.64 µM
  TGI: 3.03 µM
HOP-62 NSCLC
  GI50: 1.82 µM
  TGI: 3.45 µM

## O=[N+]([O-])C(/C=N/Nc1ccccc1)/C=N/Nc1ccccc1
LOX IMVI melanoma
  TGI: > 100 µM
MALME-3M melanoma
  TGI: > 100 µM
HCC-2998 colon
  TGI: > 100 µM
COLO 205 colon
  TGI: > 100 µM
OVCAR-4 ovarian
  TGI: > 100 µM
SF-295 CNS
  TGI: > 100 µM
U251 CNS
  TGI: > 100 µM
CAKI-1 renal
  TGI: > 100 µM
HOP-62 NSCLC
  TGI: > 100 µM

## O=C1/C=C(/c2ccc(O)cc2)[C@@H](O)Cc2ccc(O)cc2O1
LOX IMVI melanoma
  TGI: > 100 µM
MALME-3M melanoma
  TGI: > 100 µM
COLO 205 colon
  TGI: > 100 µM
OVCAR-4 ovarian
  TGI: > 100 µM
SF-295 CNS
  TGI: > 100 µM
U251 CNS
  TGI: > 100 µM
CAKI-1 renal
  TGI: > 100 µM
HOP-62 NSCLC
  TGI: > 100 µM
